According to patent US8563540B2, “Pyrido[3,2-d]pyrimidine PI3K delta inhibitor compounds and methods of use” (Genetech, Inc., priority 2010, dated 2013):

Tests used:
p110 alpha = target: T1, p110 alpha (Homo sapiens, UniProt P42336); experiment: PI3K Isoform Inhibition Assay, p110 alpha (delta/alpha selectivity); conditions: ratio of biochemical IC50 values
T1 construct: purchased Upstate Group, Millipore; Dundee, UK
Procedure: (§1) PI3K enzymatic activity was assayed by measuring the amount of product phosphatidylinositol […] (PIP3) formed from substrate 4,5 phosphatidylinositol 4,5-phosphate (PIP2) using a fluorescence polarization displacement assay. The decrease in fluorescence polarization of a fluorescent PIP3 probe is measured as it is displaced from a PIP3-binding protein GRP-1 detector by PI3K-catalyzed product. […] The kinase reactions were initiated by the addition of 40 ng/mL p110α/p85α, 300 ng/mL p110β/p85α, 40 ng/mL p110γ, or 40 ng/mL […] (Upstate Group, Millipore; Dundee, UK), and 10 μM PIP2 (Echelon Biosciences) to the wells. […] After 60 minutes of incubation at room temperature to allow equilibration of labeled and unlabeled PIP3 binding, the parallel and perpendicular components of the fluorescence emissions from each sample were measured at an excitation wavelength of 530 nm and an emission wavelength of 590 nm using an Envision fluorescent plate reader with a rhodamine filter (PerkinElmer Life and Analytical Sciences; Wellesley, Mass.). The assay is capable of detecting 0.1-2.0 μM PIP3 product. The IC50 values were obtained by fitting the dose-dependent inhibition data to a 4-parameter equation using Assay Explorer software (MDL, San Ramon, Calif.).
(§2) The Formula I compound was serially diluted in 100% DMSO. The kinase reaction was incubated for 1 h at room temperature, and the reaction was terminated by the addition of PBS. IC50 values were subsequently determined using sigmoidal dose-response curve fit (variable slope).
The same protocol may be used to establish IC50 values for p110α (alpha) PI3K binding. […]

p110 delta = target: T2, p110 delta (Homo sapiens, UniProt O00329); experiment: PI3K Isoform Inhibition Assay, p110 delta; type: biochemical; conditions: PI3K isoform inhibition assay of Example 901
T2 construct: purchased Upstate Group, Millipore; Dundee, UK
T2 sequence (O00329 whole entry, canonical isoform): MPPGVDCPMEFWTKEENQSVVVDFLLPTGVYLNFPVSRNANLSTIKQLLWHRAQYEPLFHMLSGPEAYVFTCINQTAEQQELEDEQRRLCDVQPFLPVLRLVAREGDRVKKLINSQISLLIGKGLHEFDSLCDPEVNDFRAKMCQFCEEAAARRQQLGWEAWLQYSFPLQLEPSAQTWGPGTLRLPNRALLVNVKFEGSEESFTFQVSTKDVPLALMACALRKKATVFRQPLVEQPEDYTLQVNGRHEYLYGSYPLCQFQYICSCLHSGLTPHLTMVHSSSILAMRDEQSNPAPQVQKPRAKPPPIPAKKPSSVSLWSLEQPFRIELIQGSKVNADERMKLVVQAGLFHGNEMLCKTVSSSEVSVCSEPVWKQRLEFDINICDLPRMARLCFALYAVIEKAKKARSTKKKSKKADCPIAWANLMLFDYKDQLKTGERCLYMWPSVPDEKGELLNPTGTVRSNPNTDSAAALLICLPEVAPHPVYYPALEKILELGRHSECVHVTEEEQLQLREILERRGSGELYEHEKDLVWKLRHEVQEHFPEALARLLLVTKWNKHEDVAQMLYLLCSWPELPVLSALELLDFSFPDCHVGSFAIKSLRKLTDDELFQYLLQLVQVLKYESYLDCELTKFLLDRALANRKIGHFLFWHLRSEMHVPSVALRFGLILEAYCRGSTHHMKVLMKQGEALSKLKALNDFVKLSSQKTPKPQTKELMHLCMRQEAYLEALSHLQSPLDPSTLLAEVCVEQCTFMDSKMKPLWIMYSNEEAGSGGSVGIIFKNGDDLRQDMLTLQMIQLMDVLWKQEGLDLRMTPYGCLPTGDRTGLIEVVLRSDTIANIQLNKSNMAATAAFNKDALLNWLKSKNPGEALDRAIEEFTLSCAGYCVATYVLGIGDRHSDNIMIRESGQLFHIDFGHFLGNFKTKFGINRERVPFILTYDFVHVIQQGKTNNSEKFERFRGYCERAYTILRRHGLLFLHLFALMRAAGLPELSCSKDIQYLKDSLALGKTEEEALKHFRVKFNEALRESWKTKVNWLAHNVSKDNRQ
T2 sequence (P27986 whole entry partner, canonical isoform): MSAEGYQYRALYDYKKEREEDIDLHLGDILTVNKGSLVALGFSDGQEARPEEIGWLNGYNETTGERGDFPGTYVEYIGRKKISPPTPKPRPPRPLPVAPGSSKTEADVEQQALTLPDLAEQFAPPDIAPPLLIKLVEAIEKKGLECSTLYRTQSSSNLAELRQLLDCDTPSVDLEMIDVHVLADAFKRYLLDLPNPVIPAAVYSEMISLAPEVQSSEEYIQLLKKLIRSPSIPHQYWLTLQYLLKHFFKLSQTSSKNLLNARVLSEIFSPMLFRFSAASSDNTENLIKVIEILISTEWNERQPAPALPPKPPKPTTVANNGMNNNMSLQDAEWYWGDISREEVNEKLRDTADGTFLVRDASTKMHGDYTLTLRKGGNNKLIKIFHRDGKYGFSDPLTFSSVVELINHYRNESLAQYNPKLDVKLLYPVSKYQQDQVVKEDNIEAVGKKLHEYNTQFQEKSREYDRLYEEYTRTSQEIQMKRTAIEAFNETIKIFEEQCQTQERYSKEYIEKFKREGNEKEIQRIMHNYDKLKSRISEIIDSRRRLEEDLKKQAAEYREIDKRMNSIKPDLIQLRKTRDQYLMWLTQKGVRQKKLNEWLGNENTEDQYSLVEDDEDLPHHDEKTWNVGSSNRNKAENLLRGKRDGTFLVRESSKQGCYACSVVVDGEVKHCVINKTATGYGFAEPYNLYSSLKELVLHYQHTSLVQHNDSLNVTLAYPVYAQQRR
Procedure: as §1, §2
The four Class I PI 3-kinases are cloned into baculovirus vectors as follows: […]

T1 sequence (P42336 whole entry, canonical isoform): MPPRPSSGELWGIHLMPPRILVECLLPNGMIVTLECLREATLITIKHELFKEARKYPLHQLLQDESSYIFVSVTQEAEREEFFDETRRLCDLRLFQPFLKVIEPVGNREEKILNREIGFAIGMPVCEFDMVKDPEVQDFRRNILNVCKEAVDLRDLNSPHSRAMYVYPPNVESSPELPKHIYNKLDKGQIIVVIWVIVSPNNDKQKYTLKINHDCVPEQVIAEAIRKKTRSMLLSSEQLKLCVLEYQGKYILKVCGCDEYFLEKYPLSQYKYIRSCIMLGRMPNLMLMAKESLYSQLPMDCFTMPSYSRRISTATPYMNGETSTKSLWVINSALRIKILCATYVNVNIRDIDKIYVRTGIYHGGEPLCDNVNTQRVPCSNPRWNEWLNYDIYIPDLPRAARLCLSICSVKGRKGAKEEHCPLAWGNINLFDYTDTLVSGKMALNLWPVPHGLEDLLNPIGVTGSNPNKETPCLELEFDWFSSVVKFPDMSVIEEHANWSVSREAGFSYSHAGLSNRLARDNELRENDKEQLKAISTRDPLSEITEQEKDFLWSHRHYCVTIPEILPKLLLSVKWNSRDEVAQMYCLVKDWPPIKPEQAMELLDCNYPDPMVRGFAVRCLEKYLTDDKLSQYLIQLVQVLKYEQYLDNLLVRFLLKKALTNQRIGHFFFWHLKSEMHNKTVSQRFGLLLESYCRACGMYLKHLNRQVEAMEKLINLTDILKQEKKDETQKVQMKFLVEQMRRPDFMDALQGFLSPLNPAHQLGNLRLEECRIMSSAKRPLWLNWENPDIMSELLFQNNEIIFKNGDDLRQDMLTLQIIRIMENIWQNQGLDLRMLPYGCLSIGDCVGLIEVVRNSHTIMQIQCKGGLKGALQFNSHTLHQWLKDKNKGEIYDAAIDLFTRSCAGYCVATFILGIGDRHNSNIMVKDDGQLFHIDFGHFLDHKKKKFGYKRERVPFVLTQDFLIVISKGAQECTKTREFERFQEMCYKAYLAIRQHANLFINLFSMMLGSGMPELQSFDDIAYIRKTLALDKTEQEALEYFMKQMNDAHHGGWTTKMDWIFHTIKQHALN
T1 sequence (P27986 whole entry partner, canonical isoform): as the sequence (P27986 whole entry partner, canonical isoform) above

Row | Compound | IC50 p110 alpha/IC50 p110 delta (p110 alpha) | IC50 (p110 delta)
1 | O=S1(=O)CCN(C2CN(Cc3ccc4nc(-c5c(F)ccc6[nH]ccc56)nc(N5CCOCC5)c4n3)C2)CC1 [Compound 129, 4-(2-(5-fluoro-1H-indol-4-yl)-6-((3-(1,1-dioxo)thiomorpholinoazetidin-1-yl)methyl)pyrido[3,2-d]pyrimidin-4-yl)morpholine] | 440 | 0.845 nM
2 | CC(C)n1ncnc1-c1ccc2nc(-c3c(F)ccc4[nH]ccc34)nc(N3CCOCC3)c2n1 [Compound 141, 4-(2-(5-fluoro-1H-indol-4-yl)-6-(1-isopropyl-1H-1,2,4-triazol-5-yl)pyrido[3,2-d]pyrimidin-4-yl)morpholine] | 9.4 | 63.6 nM
3 | Fc1ccc2[nH]ccc2c1-c1nc(N2CCOCC2)c2nc(CN3CCC(C4COC4)CC3)ccc2n1 [Compound 130, 4-(2-(5-fluoro-1H-indol-4-yl)-6-((4-(oxetan-3-yl)piperidin-1-yl)methyl)pyrido[3,2-d]pyrimidin-4-yl)morpholine] | 352 | 3.12 nM
4 | CC(C)(O)C1CCN(C(=O)c2ccc3nc(-c4c(F)ccc5[nH]ccc45)nc(N4CCOCC4)c3n2)CC1 [Compound 118, (2-(5-fluoro-1H-indol-4-yl)-4-morpholinopyrido[3,2-d]pyrimidin-6-yl)(4-(2-hydroxypropan-2-yl)piperidin-1-yl)methanone] | 77 | 13 nM
5 | Fc1ccc2[nH]ccc2c1-c1nc(N2CCOCC2)c2nc(CN3CC(N4CCC(F)(F)CC4)C3)ccc2n1 [Compound 125, 4-(6-((3-(4,4-difluoropiperidin-1-yl)azetidin-1-yl)methyl)-2-(5-fluoro-1H-indol-4-yl)pyrido[3,2-d]pyrimidin-4-yl)morpholine] | 246 | 1.52 nM
6 | Fc1ccc2[nH]ccc2c1-c1nc(N2CCOCC2)c2nc(CN3CC(C4CCOCC4)C3)ccc2n1 [Compound 111, 4-(2-(5-fluoro-1H-indol-4-yl)-6-((3-(tetrahydro-2H-pyran-4-yl)azetidin-1-yl)methyl)pyrido[3,2-d]pyrimidin-4-yl)morpholine] | 281 | 5.32 nM
7 | OCc1ccc2nc(-c3c(F)ccc4[nH]ccc34)nc(N3CCOCC3)c2n1 [Compound 108, (2-(5-fluoro-1H-indol-4-yl)-4-morpholinopyrido[3,2-d]pyrimidin-6-yl)methanol] | 13.5 | 26.5 nM
8 | Cc1cnc2c(N3CCOCC3)nc(-c3cnc(N)nc3)nc2c1 [Compound 197, 5-(7-methyl-4-morpholinopyrido[3,2-d]pyrimidin-2-yl)pyrimidin-2-amine] | 0.20 | 5.72 nM
9 | CC1(COc2ccc3nc(-c4cnc(N)nc4)nc(N4CCOCC4)c3n2)COC1 [Compound 188, 5-(6-((3-methyloxetan-3-yl)methoxy)-4-morpholinopyrido[3,2-d]pyrimidin-2-yl)pyrimidin-2-amine] | 0.18 | 8.69 nM
10 | COC1CN(c2cnc3c(N4CCOCC4)nc(-c4cnc(N)nc4)nc3c2)C1 [Compound 200, 5-(7-(3-methoxyazetidin-1-yl)-4-morpholinopyrido[3,2-d]pyrimidin-2-yl)pyrimidin-2-amine] | 0.97 | 716 nM
11 | Nc1ncc(-c2nc(N3CCOCC3)c3ncc(C4CC4)cc3n2)cn1 [Compound 198, 5-(7-cyclopropyl-4-morpholinopyrido[3,2-d]pyrimidin-2-yl)pyrimidin-2-amine] | 0.27 | 3.88 nM
12 | CC(C)Oc1cnc2c(N3CCOCC3)nc(-c3cnc(N)nc3)nc2c1 [Compound 201, 5-(7-isopropoxy-4-morpholinopyrido[3,2-d]pyrimidin-2-yl)pyrimidin-2-amine] | 0.34 | 4.91 nM
13 | O=C1CN(C2CN(Cc3ccc4nc(-c5c(F)ccc6[nH]ccc56)nc(N5CCOCC5)c4n3)C2)CCN1 [Compound 127, 4-(1-((2-(5-fluoro-1H-indol-4-yl)-4-morpholinopyrido[3,2-d]pyrimidin-6-yl)methyl)azetidin-3-yl)piperazin-2-one] | 141 | 1.75 nM
14 | Fc1ccc2[nH]ccc2c1-c1ccc2nc(N3CCOCC3)nc(N3CCOCC3)c2n1 [Compound 159, 4,4′-(6-(5-fluoro-1H-indol-4-yl)pyrido[3,2-d]pyrimidine-2,4-diyl)dimorpholine] | 1.4 | 873 nM

The remaining lines, values ahead:

Row | IC50 p110 alpha/IC50 p110 delta (p110 alpha) | IC50 (p110 delta) | Compound
15 | 21 | 98.3 nM | CNc1ncccc1-c1nc(N2CCOCC2)c2nc(CN3CCC(C(C)(C)O)CC3)ccc2n1 [Compound 160, 2-(1-((2-(2-(methylamino)pyridin-3-yl)-4-morpholinopyrido[3,2-d]pyrimidin-6-yl)methyl)piperidin-4-yl)propan-2-ol]
16 | 33 | 12.5 nM | Cc1nc2ccccc2n1-c1nc(N2CCOCC2)c2nc(CN3CCC(C(C)(C)O)CC3)ccc2n1 [Compound 101, 2-(1-((2-(2-methyl-1H-benzo[d]imidazol-1-yl)-4-morpholinopyrido[3,2-d]pyrimidin-6-yl)methyl)piperidin-4-yl)propan-2-ol]
17 | 83 | 11.8 nM | CCn1c(=O)c2ccccc2n1-c1nc(N2CCOCC2)c2nc(CN3CCC(C(C)(C)O)CC3)ccc2n1 [Compound 104, 2-ethyl-1-(6-((4-(2-hydroxypropan-2-yl)piperidin-1-yl)methyl)-4-morpholinopyrido[3,2-d]pyrimidin-2-yl)-1H-indazol-3(2H)-one]
18 | 31 | 66.9 nM | Cc1cc(Nc2nc(N3CCOCC3)c3nc(CN4CCC(C(C)(C)O)CC4)ccc3n2)n[nH]1 [Compound 106, 2-(1-((2-(5-methyl-1H-pyrazol-3-ylamino)-4-morpholinopyrido[3,2-d]pyrimidin-6-yl)methyl)piperidin-4-yl)propan-2-ol]
19 | 14 | 2.03 nM | CC(C)(C(N)=O)N1CCN(Cc2ccc3nc(-c4ccc(N)nc4)nc(N4CCOCC4)c3n2)CC1 [Compound 124, 2-(4-((2-(6-aminopyridin-3-yl)-4-morpholinopyrido[3,2-d]pyrimidin-6-yl)methyl)piperazin-1-yl)-2-methylpropanamide]
20 | 82 | 25.6 nM | Cc1cc2ccccc2n1-c1nc(N2CCOCC2)c2nc(CN3CCC(C(C)(C)O)CC3)ccc2n1 [Compound 135, 2-(1-((2-(2-methyl-1H-indol-1-yl)-4-morpholinopyrido[3,2-d]pyrimidin-6-yl)methyl)piperidin-4-yl)propan-2-ol]
21 | 43 | 9.33 nM | Cc1nc(N)ccc1-c1nc(N2CCOCC2)c2nc(CN3CCC(C(C)(C)O)CC3)ccc2n1 [Compound 116, 2-(1-((2-(6-amino-2-methylpyridin-3-yl)-4-morpholinopyrido[3,2-d]pyrimidin-6-yl)methyl)piperidin-4-yl)propan-2-ol]
22 | 42 | 2.86 nM | CC(C)(O)C1CCN(Cc2ccc3nc(-n4c(C(F)(F)F)nc5ccccc54)nc(N4CCOCC4)c3n2)CC1 [Compound 156, 2-(1-((4-morpholino-2-(2-(trifluoromethyl)-1H-benzo[d]imidazol-1-yl)pyrido[3,2-d]pyrimidin-6-yl)methyl)piperidin-4-yl)propan-2-ol]
23 | 71 | 7.94 nM | CC(C)(O)C1CCN(Cc2ccc3nc(-n4c(C5CC5)nc5ccccc54)nc(N4CCOCC4)c3n2)CC1 [Compound 102, 2-(1-((2-(2-cyclopropyl-1H-benzo[d]imidazol-1-yl)-4-morpholinopyrido[3,2-d]pyrimidin-6-yl)methyl)piperidin-4-yl)propan-2-ol]
24 | 17.8 | 118 nM | CC(C)(O)C1CCN(Cc2ccc3nc(-c4cccc5nccn45)nc(N4CCOCC4)c3n2)CC1 [Compound 161, 2-(1-((2-(imidazo[1,2-a]pyridin-5-yl)-4-morpholinopyrido[3,2-d]pyrimidin-6-yl)methyl)piperidin-4-yl)propan-2-ol]
25 | 5.4 | 2.57 nM | CC(C)(O)C1CCN(Cc2ccc3nc(-c4cnc(N)nc4)nc(N4CCOCC4)c3n2)CC1 [Compound 107, 2-(1-((2-(2-aminopyrimidin-5-yl)-4-morpholinopyrido[3,2-d]pyrimidin-6-yl)methyl)piperidin-4-yl)propan-2-ol]
26 | 200 | 10.5 nM | Cc1oc2ccccc2c1-c1nc(N2CCOCC2)c2nc(CN3CCC(C(C)(C)O)CC3)ccc2n1 [Compound 103, 2-(1-((2-(2-methylbenzofuran-3-yl)-4-morpholinopyrido[3,2-d]pyrimidin-6-yl)methyl)piperidin-4-yl)propan-2-ol]
